These results are taken from patent US8409836B2, “Treatment of cellulosic material and enzymes useful therein” (Roal Oy, priority 2005, dated 2013).

Format in all cases: biochemical
The target of data set [1] is T1, Acremonium thermophilum ALKO4245 cellobiohydrolase At Cel7A (At CBH/Cel7A), recombinant, SEQ ID NO: 6 (Phialemonium thermophilum, UniProt A7WNT9).
T1 sequence (A7WNT9 18-523): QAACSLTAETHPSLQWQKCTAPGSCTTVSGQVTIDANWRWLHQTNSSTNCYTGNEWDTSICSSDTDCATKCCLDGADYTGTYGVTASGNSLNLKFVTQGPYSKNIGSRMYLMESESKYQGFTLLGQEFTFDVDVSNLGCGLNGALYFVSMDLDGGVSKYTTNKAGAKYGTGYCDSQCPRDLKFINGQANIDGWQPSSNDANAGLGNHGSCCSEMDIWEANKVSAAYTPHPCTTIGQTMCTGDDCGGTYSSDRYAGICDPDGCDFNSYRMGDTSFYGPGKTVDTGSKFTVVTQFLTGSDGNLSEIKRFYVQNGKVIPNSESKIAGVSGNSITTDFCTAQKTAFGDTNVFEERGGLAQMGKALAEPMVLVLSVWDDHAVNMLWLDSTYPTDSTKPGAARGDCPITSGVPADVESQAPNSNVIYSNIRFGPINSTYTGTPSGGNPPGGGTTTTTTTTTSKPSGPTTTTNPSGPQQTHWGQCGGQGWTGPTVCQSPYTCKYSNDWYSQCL
Put plainly: Cellobiose inhibition constant, CNPLac as substrate. The method, then:
(§1) The Michaelis-Menten and cellobiose inhibition constants were determined from the cellobiohydrolases produced heterologously in T. reesei (Examples 14 and 15). The enzymes were purified as described in Example 2. Protein concentrations of purified enzymes were measured by their absorption at 280 nm using a theoretical molar extinction co-efficient, which were calculated from the amino acid sequences (Gill and von Hippel, 1989).
(§2) Kinetic constants (Km and kcat values) and cellobiose inhibition constant (Ki) for Tr CBHI/Cel7A, Ta CBH/Cel7A, At CBH/Cel7A and Ct CBH/Cel7A, were measured using CNPLac (2-Chloro-4-nitrophenyl-β-D-lactoside) as substrate at ambient temperature (22° C.) in 50 mM sodium phosphate buffer, pH 5.7. For the determination of the inhibition constant (Ki), eight different substrate concentrations (31-4000 μM) in the presence of a range of five inhibitor concentrations (0-100 μM or 0-400 μM), which bracket the Ki value, were used. All experiments were performed in microtiter plates and the total reaction volume was 200 μl. The initial rates were in each case measured by continuous monitoring the release of the chloro-nitrophenolate anion (CNP, 2-Chloro-4-nitrophenolate) through measurements at 405 nm using Varioscan (Thermolabsystems) microtiter plate reader. The results were calculated from CNP standard curve (from 0 to 100 μM). Enzyme concentrations used were: Tr CBHI/Cel7A 2.46 μM, Ta CBH/Cel7A 1.58 μM, Ct CBH/Cel7A 0.79 μM and At CBH/Cel7A 3 μM. The Km and kcat constants were calculated from the fitting of the Michaelis-Menten equation using the programme of Origin. Lineweaver-Burk plots, replots (LWB slope versus [Glc2; cellobiose]) and Hanes plots were used to distinguish between competitive and mixed type inhibition and to determine the inhibition constants (Ki).

The target of data set [2] is T2, Chaetomium thermophilum ALKO4265 cellobiohydrolase Ct Cel7A (Ct CBH/Cel7A), recombinant, SEQ ID NO: 8 (Thermochaetoides thermophila, UniProt A7WNU1).
T2 sequence (A7WNU1 19-532): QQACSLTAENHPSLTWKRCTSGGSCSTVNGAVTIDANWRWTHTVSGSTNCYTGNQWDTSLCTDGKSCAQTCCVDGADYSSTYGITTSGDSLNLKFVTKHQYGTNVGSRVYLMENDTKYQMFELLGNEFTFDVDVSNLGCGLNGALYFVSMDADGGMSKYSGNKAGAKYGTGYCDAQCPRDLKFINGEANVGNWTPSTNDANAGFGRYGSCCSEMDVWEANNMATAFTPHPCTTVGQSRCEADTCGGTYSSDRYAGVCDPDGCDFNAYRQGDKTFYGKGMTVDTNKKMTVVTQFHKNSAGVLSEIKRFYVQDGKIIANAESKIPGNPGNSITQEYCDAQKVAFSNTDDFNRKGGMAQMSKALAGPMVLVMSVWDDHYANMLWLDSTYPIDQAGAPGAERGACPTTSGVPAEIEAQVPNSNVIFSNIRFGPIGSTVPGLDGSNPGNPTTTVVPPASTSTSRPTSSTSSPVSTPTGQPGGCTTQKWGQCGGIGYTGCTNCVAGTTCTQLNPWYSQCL
The data set is described as above. How it is done: as §1, §2

Data set [3] concerns the target T3, Thermoascus aurantiacus ALKO4242 cellobiohydrolase Ta Cel7A (Ta CBH/Cel7A), recombinant, SEQ ID NO: 2 (Thermoascus aurantiacus, UniProt A7WNU2).
T3 sequence (A7WNU2 18-457): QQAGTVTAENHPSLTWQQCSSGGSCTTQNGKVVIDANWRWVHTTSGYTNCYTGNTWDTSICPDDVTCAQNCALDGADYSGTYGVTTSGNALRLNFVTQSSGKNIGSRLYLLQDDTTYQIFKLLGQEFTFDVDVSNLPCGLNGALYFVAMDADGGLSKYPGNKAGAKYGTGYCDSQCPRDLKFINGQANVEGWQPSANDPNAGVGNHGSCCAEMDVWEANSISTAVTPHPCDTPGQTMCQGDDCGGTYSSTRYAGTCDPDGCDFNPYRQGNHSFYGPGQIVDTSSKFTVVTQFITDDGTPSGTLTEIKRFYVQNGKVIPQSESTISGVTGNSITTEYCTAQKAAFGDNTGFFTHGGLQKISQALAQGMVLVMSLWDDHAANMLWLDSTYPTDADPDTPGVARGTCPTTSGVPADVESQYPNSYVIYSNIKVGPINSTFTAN
Described as above. How it is done: as §1, §2

Data set [4] addresses Trichoderma reesei cellobiohydrolase I Tr Cel7A (Tr CBHI/Cel7A) (Trichoderma reesei, UniProt A0A024RXP8). The data set is described as above. The method, then:
as §1, §2

Data set [5] can be described thus: β-glucosidase activity on 4-nitrophenyl-β-D-glucopyranoside. Conditions: purified β-glucosidase, 50° C. The method, then: Acremonium Thermophilum ALKO4245 was grown as described in Example 1. The pure β-glucosidase was obtained by sequential purification with hydrophobic interaction and anion exchange chromatography followed by gel filtration. The β-glucosidase activity of the fractions collected during purification was determined using 4-nitrophenyl-β-D-glucopyranoside as substrate (Bailey and Linko, 1990). Protein content was measured by BioRad Assay Kit (Bio-Rad Laboratories) using bovine serum albumine as standard.
Thermoascus aurantiacus ALKO4242 was grown as described in Example 1. The pure β-glucosidase was obtained by sequential purification with hydrophobic interaction, anion and cation exchange chromatography followed by gel filtration. The β-glucosidase activity of the fractions collected during purification was determined using 4-nitrophenyl-β-D-glucopyranoside as substrate (Bailey and Linko, 1990). Protein content was measured by BioRad Assay Kit (Bio-Rad Laboratories) using bovine serum albumine as standard.

A short description of data set [6]: Thermal stability of purified β-glucosidase. The note with it: 0.1 mg/ml BSA, pH 5.0, 60 min, 4-nitrophenyl-β-D-glucopyranoside. How it is done:
Thermal stability of the purified β-glucosidase was determined at different temperatures. The reaction was performed in the presence of 0.1 mg/ml BSA at pH 5.0 for 60 min using 4-nitrophenyl-β-D-glucopyranoside as substrate. A. thermophilum βG—101 was stable up to 70° C. The Aspergillus reference enzyme (Novozym 188) retained 100% of activity up to 60°.
Thermal stability of the purified β-glucosidase was determined at different temperatures. The reaction was performed in the presence of 0.1 mg/ml BSA at pH 5.0 for 60 min using 4-nitrophenyl-β-D-glucopyranoside as substrate. T. aurantiacus βG—81 was stable up to 75° C. The Aspergillus reference enzyme (Novozym 188) retained 100% of activity up to 60° C.

The nature of data set [7]: pH optimum of heterologously produced β-glucosidases. Conditions: McIlvaine's buffer, pH range 3.0-8.0, 4-nitrophenyl-β-D-glucopyranoside. The method, then:
(§3) The pH optimum of the heterologously produced β-glucosidases was determined in the universal McIlvaine's buffer within a pH range of 3.0-8.0 using 4-nitrophenyl-β-D-glucopyranoside as substrate. The pH optima for the Acremonium βG—101, Chaetomium βG—76, and Thermoascus βG—81 are pH 4.5, 5.5, and 4.5, respectively (FIG. 7 A). The optimal temperature for enzymatic activity of these β-glucosidases was determined at the temperature range of 50-85° C. as described above. The highest activity of the enzymes was determined to be at 70° C., 65° C., and 75° C. for the Acremonium βG—101/Cel3A, Chaetomium βG—76/Cel3A, and Thermoascus βG—81/Cel3A, respectively (FIG. 7 B).

Data set [8] is described as follows: Temperature optimum of heterologously produced β-glucosidases. Conditions: temperature range 50-85° C., 60 min. The method, then:
as §3

Sequence of Trichoderma reesei cellobiohydrolase I Tr Cel7A (Tr CBHI/Cel7A) (A0A024RXP8 18-514): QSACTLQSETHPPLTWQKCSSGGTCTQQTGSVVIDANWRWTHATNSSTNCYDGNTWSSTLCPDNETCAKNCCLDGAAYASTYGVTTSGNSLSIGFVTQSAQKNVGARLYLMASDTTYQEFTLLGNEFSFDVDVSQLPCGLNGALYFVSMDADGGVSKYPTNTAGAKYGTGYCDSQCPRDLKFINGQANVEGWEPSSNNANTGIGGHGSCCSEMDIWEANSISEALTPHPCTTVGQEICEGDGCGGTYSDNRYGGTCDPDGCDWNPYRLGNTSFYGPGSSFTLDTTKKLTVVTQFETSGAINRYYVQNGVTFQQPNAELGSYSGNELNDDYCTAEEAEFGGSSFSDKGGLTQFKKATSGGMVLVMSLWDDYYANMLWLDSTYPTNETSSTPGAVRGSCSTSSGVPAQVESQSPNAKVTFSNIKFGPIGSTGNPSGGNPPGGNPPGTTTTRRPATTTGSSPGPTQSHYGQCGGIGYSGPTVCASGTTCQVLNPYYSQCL

For `OC[C@H]1O[C@@H](O[C@H]2[C@H](O)[C@@H](O)C(O)O[C@@H]2CO)[C@H](O)[C@@H](O)[C@@H]1O` (stereo partly shown) [cellobiose], the inhibitory constant (Ki) (in general, the equilibrium dissociation constant of an inhibitor or competing ligand from its target) in data set [1] was determined as 141 µM; in data set [2] it was 39 µM; in data set [3], 107 µM; in data set [4], 19 µM. Moreover, the “higher inhibition constant as compared to that of Tr CBHI/Cel7A” value in data set [1] (At CBH/Cel7A vs Tr CBHI/Cel7A, cellobiose) was “over 7 fold”. Also, the Type of inhibition entry in data set [1] (At Cel7A, CNPLac substrate, 50 mM sodium phosphate pH 5.7, 22° C.) is on record as “competitive”; in data set [2] (Ct Cel7A, CNPLac substrate, 50 mM sodium phosphate pH 5.7, 22° C.) it was “competitive”; in data set [3] (Ta Cel7A, CNPLac substrate, 50 mM sodium phosphate pH 5.7, 22° C.), “competitive”; in data set [4] (Tr Cel7A (control), CNPLac substrate, 50 mM sodium phosphate pH 5.7, 22° C.), “competitive”.

B1: At βG_101: beta-glucosidase of Acremonium thermophilum ALKO4245, gene At cel3A, amino acid SEQ ID NO: 24 (protein)
chain: MRQALVSLALLASSPVSAARELATSDPFYPSPWMNPEANGWEDAYAKAKAFVSQLTLLEKVNLTTGIGWQGGQCVGNVGSVPRLGLRSLCMQDSPVGIRFGDYVSVFPSGQTTAATFDKGLMNRRGNAMGQEHKGKGVNVLLGPVAGPIGRTPEGGRNWEGFSPDPVLTGIALAETIKGIQDAGVIACAKHFIANEQEHFRQSGEAQGYGFDISESLSSNIDDKTMHELYLWPFADGVRAGVGAIMCSYNQINNSYGCQNSKTLNNLLKNELGFQGFVMSDWQAQHTGAASAVAGLDMTMPGDTSFNTGLSYWGTNLTLAVLNGTVPEYRIDDMVMRIMAAFFKTGQTLDLPPINFDSWTTDTFGPLHFAVNEDRQQINWHVNVQDNHGSLIREIAAKGTVLLKNTGSLPLNKPKFLVVVGDDAGPNPAGPNACPDRGCDVGTLGMAWGSGSANFPYLITPDAALQAQAIKDGTRYESVLSNYQLDQTKALVTQANATAIVFVNADSGEGYINVDGNEGDRKNLTLWHDGDALIKSVAGWNPNTIVVIHSTGPVLVTDWYDHPNITAILWAGVPGQESGNAITDVLYGKVNPSGRSPFTWGPTRESYGTDVLYTPNNGKGAPQQAFSEGVFIDYRHFDRTNASVIYEFGHGLSYTTFQYSNIQVVKSNAGAYKPTTGTTIPAPTFGSFSKDLKDYLFPSDQFRYITQYIYPYLNSTDPAKASLDPHYGKTAAEFLPPHALDSNPQPLLRSSGKNEPGGNRQLYDILYTVTADITNTGSIVGAEVPQLYVSLGGPDDPKVVLRGFDRIRIDPGKTAQFRVTLTRRDLSNWDPAIQDWVISKYPKKVYIGRSSRKLELSADLA
With B1, the “Specific activity on 4-nitrophenyl-β-D-glucopyranoside” value in data set [5] was found to be 1100 nkat/mg. Moreover, the “Thermal stability: temperature up to which stable / 100% of activity retained” value in data set [6] was “up to 70 °C”. Besides, in data set [7], the pH optimum is given as 4.5. Also, the “Temperature of highest activity” value in data set [8] amounted to 70 °C.
